In patent US20250179120A1, “CYCLIC PEPTIDE OR SALT THEREOF, AND MDMX INHIBITOR” (FUJIFILM Corporation, priority 2022, published 2025) one finds Papp A→B data, which are given here for five compounds.

SMILES strings stand for the structures. Numbered stars: 1 amine (or outer) side, 2 acyl side, 3 side chain; on linkers, the order of the positions; unused ones are H or OH. Square brackets hold non-standard residues; d marks the D form. Peptide text beside a SMILES is read from it. Ala(4-thiazolyl) = N[C@@H](Cc1cscn1)C(=O)O; Phe(4-Cl) = N[C@@H](Cc1ccc(Cl)cc1)C(=O)O; X1 = O=C(CSC[C@H](Cc1cscn1)N[*:1])[*:2]; Phe(4-F) = N[C@@H](Cc1ccc(F)cc1)C(=O)O; NHCH2CH2SCH2CO = O=C(CSCCN[*:1])[*:2]; NMeF = CN[C@@H](Cc1ccccc1)C(=O)O; Tle = CC(C)(C)[C@H](N)C(=O)O; hSer = N[C@@H](CCO)C(=O)O; NMeA = CN[C@@H](C)C(=O)O; dNMeA = CN[C@H](C)C(=O)O; Nme = COCCNCC(=O)O Some results are limits rather than exact numbers.

A short description of this data set: Evaluation of cell membrane permeability (MDCKII permeation test, Papp). It counts as in vitro ADME. The conditions noted are these: MDCK, MDCKII cell layer, 10 μM in HBSS, apical to basal, 37° C.; for Papp A→B: 2 hours. How it is done: Evaluation of the cell membrane permeability of the cyclic peptide according to the embodiment of the present invention was carried out.
300 μL of MDCKII cells (ECACC standard cell line) were seeded at a density of 1.0×10^6 cells/mL onto an insert (dedicated for a 24-well plate, pore diameter: 3.0 μm, manufactured by Corning Incorporated) and cultured at 37° C. in a 5% CO2 environment. After three days, the electric resistance value of the cell layer was measured (using a measuring device), and it was confirmed that the cell layer had high barrier properties (>100 Ω·cm^2).
After the insert was washed by being immersed in HBSS (phenol red-free, the same applies hereinafter), 200 μL of a sample prepared in 10 μM/HBSS was added thereto, and the insert was allowed to stand in a low-adsorption 24-well plate containing 900 μL of HBSS (37° C., 5% CO2). After 2 hours, each liquid of an upper layer (apical) and a lower layer (basal) of the insert (10 μL for apical and 500 μL for basal) was recovered. After testing, no leakage was confirmed with Lucifer Yellow, which is a non-permeable fluorescent dye.
The device used was LC/MS/MS (triple quadrupole type).
Eluent: A) 5 mM ammonium formate, 0.2% formic acid/H2O, B) 0.1% formic acid/MeCN, flow rate: 0.5 mL/min, injection volume: 2 μL, column: ACQUITY UPLC BEH C18 Column, 1.7 μm, 2.1 mm×50 mm (manufactured by Waters Corporation), temperature: 70° C., gradient (% B): 2% (0 to 0.5 min)→98% (2 to 3 min)→2% (3 to 5 min), ionization: ESI, detection mode: MRM (positive)
Based on the calculation expression shown in Expression (1), a permeability coefficient Papp, which represents the membrane permeability, was calculated from each quantitative value.
C0: initial concentration (10 μM)
S: surface area (0.33 cm^2) of single layer membrane
dC/dt: concentration change at basal [μM/s]

Take `COCC[C@@H]1NC(=O)[C@H]2CCCN2C(=O)[C@H](Cc2ccccc2)N(C)C(=O)[C@H](Cc2ccc(Cl)cc2)NC(=O)[C@H](C(C)(C)C)NC(=O)[C@H](Cc2ccc(F)cc2)NC(=O)[C@H](C)N(C)C(=O)[C@@H](C)N(C)C(=O)[C@H](Cc2cscn2)NC(=O)[C@H](C)N(C)C1=O` [Comparative Example 1, reference compound] (cyclo([Ala(4-thiazolyl)][dNMeA][NMeA][Phe(4-F)][Tle][Phe(4-Cl)][NMeF][dP][hSer](Me)[NMeA])): the Papp A→B (usually how fast a substance crosses the layer from the apical side) at 2 h, 10 μM (dog) is below 0.1 ×10⁻⁶ cm/s.
`COCC[C@@H]1NC(=O)[C@@H](C)N(C)C(=O)[C@H](Cc2ccccc2)N(C)C(=O)[C@H](Cc2ccc(Cl)cc2)NC(=O)[C@H]([C@@H](C)O)NC(=O)[C@H](Cc2ccc(F)cc2)NC(=O)[C@@H]2CCCN2C(=O)CSCCNC(=O)[C@H](C)N(C)C1=O` [compound 3] (cyclo([NMeA][NHCH2CH2SCH2CO]P[Phe(4-F)]T[Phe(4-Cl)][NMeF][dNMeA][hSer](Me))) yielded a Papp A→B of 0.25 to 0.5 ×10⁻⁶ cm/s.
With `COCC[C@@H]1NC(=O)[C@H](C)N(C)C(=O)[C@H](Cc2ccccc2)N(C)C(=O)[C@H](Cc2ccc(Cl)cc2)NC(=O)[C@H]([C@@H](C)O)NC(=O)[C@H](Cc2ccc(F)cc2)NC(=O)[C@@H]2CCCN2C(=O)CSCCNC(=O)[C@H](C)N(C)C1=O` [compound 4] (cyclo([NMeA][hSer](Me)[NMeA][NHCH2CH2SCH2CO]P[Phe(4-F)]T[Phe(4-Cl)][NMeF])), the Papp A→B lay in the range of 0.1 to 0.25 ×10⁻⁶ cm/s.
The compound `COCC[C@@H]1NC(=O)[C@H](C)N(C)C(=O)[C@H](Cc2ccccc2)N(C)C(=O)[C@H](Cc2ccc(Cl)cc2)NC(=O)[C@H]([C@@H](C)O)NC(=O)[C@H](Cc2ccc(F)cc2)NC(=O)[C@@H]2CCCN2C(=O)CSC[C@H](Cc2cscn2)NC(=O)[C@H](C)N(C)C1=O` [compound 5] (cyclo([NMeA][hSer](Me)[NMeA][X1]P[Phe(4-F)]T[Phe(4-Cl)][NMeF])) showed a Papp A→B of 0.1 to 0.25 ×10⁻⁶ cm/s.
Compound `COCC[C@@H]1NC(=O)[C@H](C)N(C)C(=O)[C@H](Cc2ccccc2)N(C)C(=O)[C@H](Cc2ccc(Cl)cc2)NC(=O)[C@H]([C@@H](C)O)NC(=O)[C@H](Cc2ccc(F)cc2)NC(=O)CN(CCOC)C(=O)CSC[C@H](Cc2cscn2)NC(=O)[C@H](C)N(C)C1=O` [compound 6] (cyclo([NMeA][hSer](Me)[NMeA][X1][Nme][Phe(4-F)]T[Phe(4-Cl)][NMeF])) registered a Papp A→B of 0.1 to 0.25 ×10⁻⁶ cm/s.
